According to patent US20210070747A1, “2(1H)-QUINOLINONE DERIVATIVE” (priority 2017, published 2021):
≈ marks a conversion by molar mass, not a printed value. Read-outs that look alike come from different tables or passages of the source.

Tests used:
E. Coli ATCC 25922 = test: Test for evaluating antibacterial activity (E. coli), broth microdilution MIC; type: cell-based; conditions: Escherichia coli, ATCC25922; 35° C., 18 hours, cation-adjusted Mueller-Hinton medium
Experimental: Minimum inhibitory concentration (MIC) was measured using the broth microdilution method described below in accordance with a modification of the standard method specified by CLSI (Clinical & Laboratory Standards Institute).
(§1) Bacterial cells under test were cultured overnight on a heart infusion agar medium, scraped off and suspended at a concentration equivalent to McFarland 0.5 turbidity; the suspension thus obtained was diluted 10 folds to give a liquid inoculum. The inoculum (0.005 mL) was inoculated on a cation-adjusted Mueller-Hinton medium containing the analyte compound and cultured at 35° C. for 18 hours. A minimum drug concentration at which no bacterial growth was macroscopically visible was designated MIC.

E. coli DNA gyrase = target: T1, E. coli DNA gyrase (Escherichia coli, UniProt P0AES6); test: Test for evaluating the activity of inhibiting E. coli DNA gyrase enzyme (Method 2, supercoiling, recombinant gyrA/gyrB complex); type: biochemical
T1 construct: made in house; host or cells: E. coli BL21 (DE3)
Experimental: The enzymatic activity of E. coli DNA gyrase was measured by a method comprising reacting DNA gyrase and its substrate, relaxed pBR322 (Inspiralis), in the presence of ATP and detecting the post-reaction supercoiled pBR322/relaxed pBR322 ratio with H19.
Specifically, to 1 ng/μL of relaxed pBR322, E. coli DNA gyrase enzyme (the gyrA or gyrB gene was incorporated into the pET15b plasmid and after expressing them in E. coli BL21 (DE3), purification was performed using a Ni-NTA column to form a complex at room temperature) was added at a final concentration of 0.135 nmol/mL and the mixture was incubated for 60 minutes at room temperature. This reaction was carried out in 20 mmol/L tris-HCl buffered solution (pH 8.0) comprising 0.5 mmol/L ATP, 0.005% bridge 35, 35 mmol/L ammonium acetate, 8 mmol/L magnesium chloride, 4.6% glycerol, and 1 mmol/L dithiothreitol. To the reaction mixture, H19 was added to bring the reaction to an end; thereafter, the supercoiled pBR322/relaxed pBR322 ratio was detected at excitation wavelength/emission wavelength=485 nm/535 nm. An inhibition curve was obtained by allowing the analyte compound to be present at varying concentrations during the reaction described above.

[1] = tested on: N. gonorrhoeae ATCC 49226; test: Test for evaluating antibacterial activity (N. gonorrhoeae), broth microdilution MIC; type: cell-based; conditions: Neisseria gonorrhoeae, ATCC49226; 35° C., 24 hours, gonococcal broth
Experimental: Minimum inhibitory concentration (MIC) was measured using the broth microdilution method described below in accordance with a modification of the method of Geers et al. (Antimicrob. Agents. Chemother. (1989), 33, 233-234).
After sterilization, BD. Difco supplement C was added to give a final concentration of 1%, whereby a gonococcal broth was prepared.
as §1, with “chocolate II” for “heart infusion”, “5” for “10”, “gonococcal broth” for “cation-adjusted Mueller-Hinton medium”, “24” for “18”

[2] = Method 2, read-out: E. Coli Gyrase supercoiling IC50

| SMILES | MIC (E. Coli ATCC 25922) [µg/mL] | IC50 (E. coli DNA gyrase; [2]) [nM] | MIC [1] [µg/mL] | IC50 (E. coli DNA gyrase) [nM] |
| --- | --- | --- | --- | --- |
| CNc1cccc2cc(C(=O)Nc3cccc(C(=O)O)c3)c(=O)[nH]c12 [Example 1, 3-[[8-(Methylamino)-2-oxo-1,2-dihydroquinoline-3-carbonyl]amino]benzoic Acid] | > 64 | 52.3 | > 4 |  |
| CNc1cccc2cc(C(=O)Nc3cccc(CC(=O)O)c3)c(=O)[nH]c12 [Example 4, (3-{[8-(methylamino)-2-oxo-1,2-dihydroquinoline-3-carboyl]amino}phenyl)acetic acid] | > 64 | 164 | > 4 |  |
| CNc1cccc2cc(C(=O)NCc3ccc(C(=O)O)cc3)c(=O)[nH]c12 [Example 6, 4-({[8-(methylamino)-2-oxo-1,2-dihydroquinoline-3-carbonyl]amino}methyl)benzoic acid] | > 64 |  | 4 (≈ 11.4 µM) |  |
| CNc1cc(F)cc2cc(C(=O)NCCc3ccc(O)c(OC)c3)c(=O)[nH]c12 [Example 81, 6-fluoro-N-[2-(4-hydroxy-3-methoxyphenyl)ethyl]-8-(methylamino)-2-oxo-1,2-dihydroquinoline-3-carboxamide] |  | 110 | > 1 |  |
| CNc1cc(F)cc2cc(C(=O)Nc3ccc(C(=O)O)cc3CCN(C)C)c(=O)[nH]c12 [Example 115, 3-[2-(dimethylamino)ethyl]-4-{[6-fluoro-8-(methylamino)-2-oxo-1,2-dihydroquinoline-3-carbonyl]amino} benzoic acid] | > 4 | 4.57 |  |  |
| CNc1cc(F)cc2cc(C(=O)Nc3ccc(C(=O)O)cc3/C=C/CCO)c(=O)[nH]c12 [Example 119, 4-[[6-Fluoro-8-(methylamino)-2-oxo-1,2-dihydroquinoline-3-carbonyl]amino]-3-[(1E)-4-hydroxybut-1-en-1-yl]benzoic Acid] | > 64 | 20.6 |  |  |
| CNc1cc(F)cc2cc(C(=O)Nc3ccc(C(=O)O)cc3CCCCO)c(=O)[nH]c12 [Example 120, 4-[[6-Fluoro-8-(methylamino)-2-oxo-1,2-dihydroquinoline-3-carbonyl]amino]-3-(4-hydroxybutyl)benzoic Acid] | > 32 | 32.5 |  |  |
| CNc1cc(F)cc2cc(C(=O)Nc3ccc(C(=O)O)cc3/C=C/CCN(C)C)c(=O)[nH]c12.Cl [Example 125, 3-[(1E)-4-(dimethylamino)but-1-en-1-yl]-4-{[6-fluoro-8-(methylamino)-2-oxo-1,2-dihydroquinoline-3-carbonyl]amino}benzoic acid-hydrochloride] | > 32 |  |  | 24.6 |
| CNc1cc(F)cc2cc(C(=O)Nc3ccc(C(=O)O)cc3CCCCN(C)C)c(=O)[nH]c12 [Example 126, 3-[4-(dimethylamino)butyl]-4-{[6-fluoro-8-(methylamino)-2-oxo-1,2-dihydroquinoline-3-carbonyl]amino}benzoic acid] | > 8 | 22 |  |  |
| CCOC(=O)c1ccc(NC(=O)c2c(O)c3cc(F)cc(NC)c3[nH]c2=O)cc1 [Example 127, Ethyl 4-[[6-fluoro-4-hydroxy-8-(methylamino)-2-oxo-1,2-dihydroquinoline-3-carbonyl]amino]benzoate] | > 16 | 214 |  |  |
| CNc1cc(F)cc2cc(CNc3ccc(C(=O)O)cc3CN(C)C3CCCCC3)c(=O)[nH]c12 [Example 128, 3-[[Cyclohexyl(methyl)amino]methyl]-4-([[6-fluoro-8-(methylamino)-2-oxo-1,2-dihydroquinolin-3-yl]methyl]amino)benzoic Acid] | > 16 | 340 |  |  |
| CNCCc1c(C(=O)Nc2ccc(C(=O)O)cc2)c(=O)[nH]c2c(NC)cc(F)cc12.O=C(O)C(F)(F)F [Example 130, 4-([6-Fluoro-8-(methylamino)-4-[2-(methylamino)ethyl]-2-oxo-1,2-dihydroquinoline-3-carbonyl]amino)benzoic acid-trifluoroacetate] | > 8 |  |  | 109 |
| CNc1cc(F)cc2c(NCCN)c(C(=O)Nc3ccc(C(=O)O)cc3)c(=O)[nH]c12.O=CO [Example 131, 4-([4-[(2-Aminoethyl)amino]-6-fluoro-8-(methylamino)-2-oxo-1,2-dihydroquinoline-3-carbonyl]amino)benzoic Acid-Formate] | > 16 |  |  | 0.94 |
| CNCCCc1c(C(=O)Nc2ccc(C(=O)O)cc2)c(=O)[nH]c2c(NC)cc(F)cc12.O=C(O)C(F)(F)F [Example 134, 4-([6-Fluoro-8-(methylamino)-4-[3-(methylamino)propyl]-2-oxo-1,2-dihydroquinoline-3-carbonyl]amino)benzoic Acid-Trifluoroacetate] | > 32 |  |  | 131 |
| CNc1cc(F)cc2c(NC[C@H]3C[C@H](N)C3)c(C(=O)Nc3ccc(C(=O)O)cc3)c(=O)[nH]c12.O=CO [Example 136, 4-{[4-{[(trans-3-aminocyclobutyl)methyl]amino}-6-fluoro-8-(methylamino)-2-oxo-1,2-dihydroquinoline-3-carbonyl]amino}benzoic acid-formate] | > 32 |  |  | 1.28 |
| CNc1cc(F)cc2c(NCC3CCNCC3)c(C(=O)Nc3ccc(C(=O)O)cc3)c(=O)[nH]c12.O=CO [Example 137, 4-{[6-fluoro-8-(methylamino)-2-oxo-4-{[(piperidine-4-yl)methyl]amino}-1,2-dihydroquinoline-3-carbonyl]amino}benzoic acid-formate] | > 32 |  |  | 1.31 |
| CNc1cc(F)cc2c(NC3CC34CCNCC4)c(C(=O)Nc3ccc(C(=O)O)cc3)c(=O)[nH]c12.O=CO (centres unmarked) [Example 139, 4-({4-[(6-azaspiro[2.5]octane-1-yl)amino]-6-fluoro-8-(methylamino)-2-oxo-1,2-dihydroquinoline-3-carbonyl}amino)benzoic acid-formate] | > 64 |  |  | 6.94 |
| CNc1cc(F)cc2c(NCC3(N)CCC3)c(C(=O)Nc3ccc(C(=O)O)cc3)c(=O)[nH]c12.O=CO [Example 140, 4-{[4-{[(1-aminocyclobutyl)methyl]amino}-6-fluoro-8-(methylamino)-2-oxo-1,2-dihydroquinoline-3-carbonyl]amino}benzoic acid-formate] | > 32 |  |  | 2.15 |
| CNCCNc1c(C(=O)Nc2ccc(C(=O)O)cc2)c(=O)[nH]c2c(NC)cc(F)cc12.O=CO [Example 141, 4-{[6-fluoro-8-(methylamino)-4-{[2-(methylamino)ethyl]amino}-2-oxo-1,2-dihydroquinoline-3-carobnyl]amino}benzoic acid-formate] | > 16 |  |  | 2.09 |
| CNc1cc(F)cc2c(N[C@H]3C[C@@H](N)C3)c(C(=O)Nc3ccc(C(=O)O)cc3)c(=O)[nH]c12 [Example 142, 4-({4-[(cis-3-aminocyclobutyl)amino]-6-fluoro-8-(methylamino)-2-oxo-1,2-dihydroquinoline-carbonyl}amino) 3-benzoic acid-formate] | > 32 | 2.66 |  |  |
| CNc1cc(F)cc2c(NCCN3CCOCC3)c(C(=O)Nc3ccc(C(=O)O)cc3)c(=O)[nH]c12.O=CO [Example 143, 4-{[6-fluoro-8-(methylamino)-4-{[2-(morpholine-4-yl)ethyl]amino}-2-oxo-1,2-dihydroquinoline-3-carbonyl]amino}benzoic acid-formate] | > 64 |  |  | 14.6 |
| CNc1cccc2cc(C(=O)Nc3ccc(CC(=O)O)cc3)c(=O)[nH]c12 [Example 166, (4-{[8-(methylamino)-2-oxo-1,2-dihydroquinoline-3-carbonyl]amino}phenyl)acetic acid] | > 16 | 18.1 |  |  |
| CNc1cccc2cc(C(=O)NCCc3ccc(C(=O)O)cc3)c(=O)[nH]c12 [Example 167, 4-(2-{[8-(methylamino)-2-oxo-1,2-dihydroquinoline-3-carbonyl]amino}ethyl)benzoic acid] | > 32 | 134 |  |  |
| CNc1cccc2cc(C(=O)NCc3cccc(C(=O)O)c3)c(=O)[nH]c12 [Example 168, 3-({[8-(methylamino)-2-oxo-1,2-dihydroquinoline-3-carbonyl]amino}methyl)benzoic acid] | > 32 | 1670 |  |  |
